Earlier results as cited in patent US20190350879A1, “METHOD OF TREATING PAIN USING RACEMIC MIXTURE OF S-KETAMINE AND R-KETAMINE” (priority 2017, published 2019).

Key:
[1] = test system: N-Methyl-D-Aspartate receptors; conditions: S(+)ketamine relative to R-isomer; target not named
[2] = S(+)ketamine compared to R-isomer

CN[C@]1(c2ccccc2Cl)CCCCC1=O [S(+)ketamine]
affinity, times greater [1]: approximately four
psychotomimetic side effects [2]: greater psychotomimetic side effects
